Measurements reported in US6379959B1, “Metalocarboxypeptidase inhibitors and derived molecules used as antitumor agents” (Universitat Autonoma de Barcelona, priority 1996, dated 2002).
Positions of bridges follow the written chain, without caps; N, C: chain ends. No end group written: not given here.

Legend:
[1] = tested on: human pancreatic adenocarcinoma cell line IBF-CP3; test: Proliferation test by recount of the cells number (hemocytometer), IBF-CP3; format: cell-based
Protocol: In this assay and with the aim of determining whether the presence in the culture medium produces some effect on the growth in vitro of the cell lines, the final number of the cells when the control reaches monolayer is determined, in the presence and in the absence of the inhibitor. The calculation is made by direct recount of the number of cells using trypsinization and subsequent recount in a hemocytometer. The detailed method is as follows:
1. In each of the three culture flasks of 25 cm^2, 5×10^5 cells are seed and a total volume of the culture medium is added (DMEM with a 10% of fetal bovine serum or synthetic serum, according to the test) of 5 mL:
A first flask is used as control and no PCI is added to it.
PCI is added to a second flask some hours after the culture has started and once the cells have adhered to the bottom of the flask. This type of test is defined as postadherence test.
PCI is added to a third flask at the same time as the culture has begun, before the cells have had time to adhere to the bottom of the flask, thus constituting the preadherence test.
2. The cells are maintained in an incubator at 37° C., 87% of relative humidity and 10% of CO2. The medium contained in the flasks is changed every 3-4 days. Medium free of PCI is added to the control flask; medium with PCI is added to the other two.
3. When the culture of one of the flasks reaches a state of monolayer (or after a specific number of days), we proceed to count the number of cells in each one of them. Firstly and in order to do that, the cells are trypsinized using the following steps:
Immediately after, the recount of the number of cells is done. To do that, an aliquot of 10 μL is taken and it is placed in an eppendorf tube. 10 μL of a solution of trypan blue dye is added. Then, it is well mixed and two aliquots of 10 μL of the mixture are taken and placed in the two zones of an hemocytometer which is placed in the inverted microscope.
The live cells are observed as being refringent and clear, while the dead ones are observed as opaque and dyed blue, for the staining is only able to penetrate dead cells. The total number of cells of the W zone of the hemocytometer is counted, differentiating between the live and the dead ones. Based on this recount, the total number of cells that was in the initial suspension (which will be the total number of cells that was in the culture) is calculated by multiplying the number obtained by 2×10^4. The viability (in %) is calculated by dividing the number of live cells by the total number of counted cells and multiplying it by 100.
The effect produced by the presence of PCI in the medium is expressed as % of cell growth inhibition, which is calculated according to the formula [formula] […]

[2] = tested on: tumors of human pancreatic adenocarcinoma cell line Capan-1; test: Tests with athymic mice, subcutaneous Capan-1 tumors; format: in vivo, nude mice; design: key to SGD class: SGD < 1 expressed as −; >expressed +; <3 expressed as +++; conditions: for Duplication time (days) of the tumor: daily 100 μL into the tumor, 32 days (control 4.32)
Protocol: With the aim of evaluating the sensitivity to PCI of induced human tumors, studies were carried out with nude mice. Human pancreatic adenocarcinoma cells Capan-1 were inoculated in these mice subcutaneously and once the tumor reached a minimum size of 3×3 mm2, a daily treatment begun, also subcutaneous, with different doses of PCI for 32 days. The following materials were employed:
In order to determine whether the PCI had any effect on tumoral growth, the growth of subcutaneous tumors induced in nude mice, whether treated with PCI or not, was followed over a period of time. The detailed protocol was the following:
1. 10^7 Capan-1 cells were dissolved in 100 μL of DMEM and injected subcutaneously to the mice. 19 mice were inoculated and divided into 4 groups.
Control group: consisting of 5 mice. They were treated with PBS.
Group 1: also consisting of 5 mice. They were treated with 0.11 mg/mL of PCI dissolved in PBS.
Group 2: consisting of 5 mice to which a treatment with a dose of 0.6 mg/mL of PCI was applied.
Group 3: consisting of 4 mice for which, in this case, the dose of PCI was 1.2 mg/mL of PCI.
2. 12 days after the inoculation of the cells, the daily treatment with PBS or PCI by direct injection in the tumor of 100 μL of such solutions was started. At this moment, the tumors were palpable and measured, at least, 2 mm of diameter.
3. During the treatment, the size of the tumor was determined every two days using a Vernier calibrator which made it possible to measure the size of the tumor in all its dimensions. The volume of the tumor was determined by means of the following formula: [formula]
As the volumes of the tumors became known, the relative growth of such tumors was calculated every 7 days using the following formula: [formula]
Once the treatment had finished, the duplication time of the tumor (td) was calculated for each treatment with the following formula: [formula]
where d corresponds to the days of treatment, Vt to the volume of the tumor at the end of the treatment and V0 to the volume at the beginning of the treatment.

[3] = Dose 0.55 (mg(kg/day), s.c., days 0-32)
[4] = Dose 3 (mg(kg/day), s.c., days 0-32)
[5] = Dose 6 (mg(kg/day), s.c., days 0-32)

With “PCI: potato carboxypeptidase inhibitor, isoform IIa, obtained by recombinant DNA techniques in E. coli (SEQ ID NO.2) (EQHADPICNKPCKTHDDCSGAWFCQACWNSARTCGPYVG; disulfide 12-27, 18-34, 8-24)” the “Percentage of Growth Inhibition” value ([1]; 5 mg PCI/mL, Postadhesion) was 23.7 ± 19.3%, the “Percentage of Growth Inhibition” value ([1]; 5 mg PCI/mL, Preadhesion, DMEM+10%BMS until controls confluent) was 20.4 ± 14.2% and the “Percentage of Growth Inhibition” value ([1]; 10 mg PCI/mL, Postadhesion) was 15.1 ± 8.3%. For the same substance, the “Percentage of Growth Inhibition” value ([1]; 10 mg PCI/mL, Preadhesion) was 11.6 ± 8.5%, the “Duplication time (days) of the tumor” value ([2]; 0.11 mg/mL PCI) was 9.06 days and the “Duplication time (days) of the tumor” value ([2]; 0.6 mg/mL PCI) was 19.49 days. For the same substance, the “Duplication time (days) of the tumor” value ([2]; 1.2 mg/mL PCI) was 5.78 days, the “Optimal T/C %” value [2, 3] was 39.79% and the “SGD (Td treated- Td control/Td control)” value [2, 3] was 1.09. For the same substance, the SGD class [2, 3] was “+”, the “Optimal T/C %” value [2, 4] was 21.36% and the “SGD (Td treated- Td control/Td control)” value [2, 4] was 3.51. The SGD class [2, 4] was “+++ (<3 expressed as +++)”, the “Optimal T/C %” value [2, 5] was 69.4% and the “SGD (Td treated- Td control/Td control)” value [2, 5] was 0.34. The SGD class [2, 5] was “− (SGD < 1 expressed as −)”, the “days of treatment until tumors start bleeding in the process of injection” value ([2]; animals treated with PCI (control three days)) was 8 days and the “activity in the reduction of the growth of the tumors” value ([2]; dose of 0.11 mg/mL) was “moderate activity (T/C < 50% moderate activity)”. For the same substance, the “duplication time of the tumor relative to the control tumors” value ([2]; dose of 0.11 mg/mL of PCI) was “twice as high”, the “activity in the reduction of the growth of the tumors” value ([2]; dose of PCI of 0.6 mg/mL) was “significant activity (T/C < 25%, significant activity)” and the “duplication time of the tumor relative to the control group” value ([2]; doses of 0.6 mg/mL) was 4.5 times.
